Consider two compounds from patent US20250186546A1, “Compositions and Methods to Prevent, Inhibit or Treat Autoimmune and Vascular Disease” (priority 2023, published 2025).

Test [1] deals with Jurkat cells. In words: Induction of apoptosis in Jurkat cells. It is filed as cell-based, human. The conditions noted are these: 5 μg/mL, 3 hours. Here is the method:
Apoptotic Jurkat cells were generated by treating Jurkat cells with 5 μg/mL staurosporine in RPMI-1640 medium for 3 hours at a density of 2.5×10^6 cells/mL at 37° C., 5% CO2. The method routinely yields greater than 90% Annexin V^+ apoptotic Jurkat cells. After washing in 1×DPBS, apoptotic Jurkat cells were resuspended at a concentration of 2×10^7 cells/mL in Diluent C with either PKH67 (green fluorescence) or PKH26 (red fluorescence) per the manufacturer's instruction. After labeling, the cells were rinsed twice with DMEM basal medium containing 10% HI-FBS and immediately used for efferocytosis assay. For labeling with other fluorescent probes, ACs were resuspended at a density of 2.5×10^6 cells/mL in DMEM basal media and incubated with 20 ng/mL pHrodo red (Life Technologies) and/or Hoechst 33342 solution (20 mM, 1:10,000 dilution, Thermo Scientific) for 30 minutes, or NuclearMask Blue Stain solution (1:2000 dilution, Invitrogen) for 30 minutes. TAMRA staining was applied to ACs at a concentration of 2×10^7 cells/mL in DMEMbasal medium at 10 μg/mL for 25 minutes.

Test [2] relates to Jurkat cells and mouse thymocytes. In words: AC preparation for efferocytosis assays (Example 2). The conditions noted are these: 3 hours. It counts as cell-based, human. The procedure:
(§1) AC preparation and labeling for efferocytosis assays: Jurkat cells (about 10 μm, a human T cell line) and mouse thymocytes (about 5 μm, isolated from mouse thymi) are treated with staurosporine for 3 hours to induce apoptosis. The method routinely yields greater than 90% Annexin V+ ACs (Shi et al., 2022). GA treatment at 10 mM for 1-minute leads to an increase in cell rigidity (Sosale et al., 2015). Mouse RBC are isolated from whole blood freshly and opsonized by IgG (Sosale et al., 2015). Storage at 4° C. for one-week or treatment by GA increases rigidity (Sosale et al., 2015). Mouse RBC are freshly prepared because commercial RBCs are often stored in cold conditions for shipment and thus likely already have increased rigidity. Cells will be labeled by TAMRA (10 μg/mL, 25 minutes, Invitrogen #C1171) that labels both DNA and protein (Shi et al., 2022; Bi et al., 2022). To assess uptake and acidification, ACs are fluorescently labeled by TAMRA (pH-insensitive) and pHrodo (20 ng/mL, 30 minutes, ThermoFisher #P35373, pH-sensitive and only fluoresces in acidic environments) (Shi et al., 2022; Bi et al., 2022). RBC are labeled by PKH26 which labels membrane lipids (Sigma PKH26GL-1KT) (Shi et al., 2022). Cell debris is prepared by passing labeled ACs 10 times through 27G needles (Puigdellivol et al., 2021). […] The % of macrophages that engulfed cargo will be quantified by FACS (Shi et al., 2022).

In test [3] the test system is BMDMs. In words: Engulfment of ACs with increased rigidity by BMDMs. It counts as cell-based, mouse. Conditions: GA 10 nM, 1 minute, control and Wdfy3 knockout BMDMs. The procedure:
as §1, with “GA treatment at 10 mM for 1-minute leads to an increase in cell rigidity (Sosale et al., 2015).” left out

In the case of `CN[C@@H]1C[C@H]2O[C@@](C)([C@@H]1OC)n1c3ccccc3c3c4c(c5c6ccccc6n2c5c31)C(=O)NC4` [staurosporine], the “Annexin V+ apoptotic Jurkat cells” value in test [1] is “greater than 90%”. Further, in test [2], the “Annexin V+ ACs” value was “greater than 90%”.

Consider `O=CCCCC=O` [Glutaraldehyde], for which the “engulfment of GA-treated (rigid) ACs by BMDMs” value in test [3] was “increased engulfment”; in test [3] (listed as GA) it was “more effective engulfment”.
